# From PubChem BioAssay (NCI)
#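 96-well plates; 48 h exposure; 5 concentrations. Endpoints by linear interpolation between flanking doses. Not reached: highest tested concentration assigned. TGI is the concentration that stops growth completely.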
# Columns and labels:
# Assay in all cases: growth of human tumour cells (NCI), 48 h
# EKVX NSCLC = system: EKVX NSCLC
# NCI-H522 lung = system: NCI-H522 lung
# 786-0 renal = system: 786-0 renal
# SK-MEL-5 melanoma = system: SK-MEL-5 melanoma
# UACC-62 melanoma = system: UACC-62 melanoma
# UO-31 renal = system: UO-31 renal
# SK-OV-3 ovarian = system: SK-OV-3 ovarian
# SK-MEL-2 melanoma = system: SK-MEL-2 melanoma
# UACC-257 melanoma = system: UACC-257 melanoma
# LOX IMVI melanoma = system: LOX IMVI melanoma
# MALME-3M melanoma = system: MALME-3M melanoma
# SNB-19 CNS = system: SNB-19 CNS
# OVCAR-8 ovarian = system: OVCAR-8 ovarian
# NCI-H23 lung = system: NCI-H23 lung
# RPMI-8226 leukemia = system: RPMI-8226 leukemia
# A549 NSCLC = system: A549 NSCLC
# SK-MEL-28 melanoma = system: SK-MEL-28 melanoma
# MCF7 breast = system: MCF7 breast
structure (smiles),measurement,setting,value
CC(=O)O[C@H]1C(=O)[C@@]2(C)C(C(OC(=O)c3ccccc3)[C@]3(O)CC(OC(=O)C(O)C(NC(=O)c4ccc(C)cc4)c4ccccc4)C(C)=C1C3(C)C)[C@]1(OC(C)=O)CO[C@@H]1C[C@@H]2O (stereo partly drawn),TGI,EKVX NSCLC,> 25 µM
same,TGI,NCI-H522 lung,< 0.0025 µM
same,TGI,786-0 renal,> 25 µM
same,TGI,SK-MEL-5 melanoma,16.8 µM
same,TGI,UACC-62 melanoma,7.44 µM
same,TGI,UO-31 renal,9.23 µM
same,TGI,SK-OV-3 ovarian,0.0284 µM
same,TGI,SK-MEL-2 melanoma,0.0141 µM
same,TGI,UACC-257 melanoma,> 25 µM
same,TGI,LOX IMVI melanoma,7.77 µM
same,TGI,MALME-3M melanoma,11.5 µM
same,TGI,SNB-19 CNS,16.7 µM
same,TGI,OVCAR-8 ovarian,> 25 µM
same,TGI,NCI-H23 lung,> 25 µM
same,TGI,RPMI-8226 leukemia,6.77 µM
same,TGI,A549 NSCLC,> 25 µM
Clc1c(Cl)c2c(Cl)c(Cl)c1C[P+](c1ccccc1)(c1ccccc1)CC[P+](c1ccccc1)(c1ccccc1)Cc1c(Cl)c(Cl)c(c(Cl)c1Cl)C[P+](c1ccccc1)(c1ccccc1)CC[P+](c1ccccc1)(c1ccccc1)C2,TGI,EKVX NSCLC,21.7 µM
same,TGI,NCI-H522 lung,9.26 µM
same,TGI,786-0 renal,19.5 µM
same,TGI,SK-MEL-5 melanoma,3.13 µM
same,TGI,UO-31 renal,21.2 µM
same,TGI,SK-OV-3 ovarian,21.7 µM
same,TGI,SK-MEL-28 melanoma,5.13 µM
same,TGI,SK-MEL-2 melanoma,6.09 µM
same,TGI,UACC-257 melanoma,6.38 µM
same,TGI,LOX IMVI melanoma,7.89 µM
same,TGI,MALME-3M melanoma,7 µM
same,TGI,SNB-19 CNS,13.4 µM
same,TGI,OVCAR-8 ovarian,19 µM
same,TGI,NCI-H23 lung,5.25 µM
same,TGI,RPMI-8226 leukemia,4.78 µM
same,TGI,A549 NSCLC,18.8 µM
Cc1c2c(n(Cc3ccccn3)c1C)NN=C(C#N)S2(=O)=O,TGI,EKVX NSCLC,> 100 µM
same,TGI,NCI-H522 lung,> 100 µM
same,TGI,786-0 renal,> 100 µM
same,TGI,SK-MEL-5 melanoma,> 100 µM
same,TGI,UACC-62 melanoma,> 100 µM
same,TGI,UO-31 renal,> 100 µM
same,TGI,SK-OV-3 ovarian,> 100 µM
same,TGI,SK-MEL-28 melanoma,> 100 µM
same,TGI,SK-MEL-2 melanoma,> 100 µM
same,TGI,UACC-257 melanoma,> 100 µM
same,TGI,LOX IMVI melanoma,> 100 µM
same,TGI,SNB-19 CNS,> 100 µM
same,TGI,OVCAR-8 ovarian,> 100 µM
same,TGI,NCI-H23 lung,> 100 µM
same,TGI,MCF7 breast,> 100 µM
same,TGI,A549 NSCLC,> 100 µM
CC(C)OP(=O)(OC(C)C)C(=Nc1ccccc1)NNc1ccc([N+](=O)[O-])cc1,TGI,EKVX NSCLC,> 100 µM
same,TGI,NCI-H522 lung,58 µM
same,TGI,786-0 renal,83.3 µM
same,TGI,SK-MEL-5 melanoma,27.1 µM
same,TGI,UACC-62 melanoma,29.1 µM
same,TGI,UO-31 renal,> 100 µM
same,TGI,SK-MEL-28 melanoma,89.5 µM
same,TGI,SK-MEL-2 melanoma,> 100 µM
same,TGI,UACC-257 melanoma,> 100 µM
same,TGI,LOX IMVI melanoma,> 100 µM
same,TGI,MALME-3M melanoma,50 µM
same,TGI,SNB-19 CNS,> 100 µM
same,TGI,OVCAR-8 ovarian,> 100 µM
same,TGI,NCI-H23 lung,> 100 µM
same,TGI,RPMI-8226 leukemia,70.4 µM
same,TGI,A549 NSCLC,88.5 µM
CCOC(=O)C1=c2[nH]c3cccc4cccc(c43)n2C=C(C(C)=O)C1CC(C)=O (stereo not drawn),TGI,EKVX NSCLC,> 100 µM
same,TGI,786-0 renal,> 100 µM
same,TGI,SK-MEL-5 melanoma,> 100 µM
same,TGI,UACC-62 melanoma,> 100 µM
same,TGI,UO-31 renal,> 100 µM
same,TGI,SK-OV-3 ovarian,> 100 µM
same,TGI,SK-MEL-28 melanoma,> 100 µM
same,TGI,SK-MEL-2 melanoma,> 100 µM
same,TGI,UACC-257 melanoma,> 100 µM
same,TGI,LOX IMVI melanoma,> 100 µM
same,TGI,SNB-19 CNS,> 100 µM
same,TGI,OVCAR-8 ovarian,> 100 µM
same,TGI,NCI-H23 lung,> 100 µM
same,TGI,MCF7 breast,> 100 µM
same,TGI,RPMI-8226 leukemia,> 100 µM
same,TGI,A549 NSCLC,> 100 µM
COP1(=O)Oc2ccccc2C(=O)C(C(F)(F)F)(C(F)(F)F)O1 (stereo not drawn),TGI,EKVX NSCLC,> 100 µM
same,TGI,NCI-H522 lung,> 100 µM
same,TGI,786-0 renal,> 100 µM
same,TGI,SK-MEL-5 melanoma,> 100 µM
same,TGI,UACC-62 melanoma,> 100 µM
same,TGI,UO-31 renal,> 100 µM
same,TGI,SK-OV-3 ovarian,> 100 µM
same,TGI,SK-MEL-28 melanoma,> 100 µM
same,TGI,SK-MEL-2 melanoma,> 100 µM
same,TGI,UACC-257 melanoma,> 100 µM
same,TGI,LOX IMVI melanoma,> 100 µM
same,TGI,SNB-19 CNS,> 100 µM
same,TGI,OVCAR-8 ovarian,> 100 µM
same,TGI,NCI-H23 lung,> 100 µM
same,TGI,RPMI-8226 leukemia,> 100 µM
same,TGI,A549 NSCLC,> 100 µM
CC(C)NC(=O)OCCN=C1c2ccccc2CCc2ccccc21,TGI,EKVX NSCLC,81.3 µM
same,TGI,786-0 renal,> 100 µM
same,TGI,SK-MEL-5 melanoma,27.4 µM
same,TGI,UACC-62 melanoma,40.8 µM
same,TGI,UO-31 renal,58.7 µM
same,TGI,SK-OV-3 ovarian,85.4 µM
same,TGI,SK-MEL-28 melanoma,40.3 µM
same,TGI,SK-MEL-2 melanoma,34.6 µM
same,TGI,UACC-257 melanoma,46 µM
same,TGI,LOX IMVI melanoma,72.7 µM
same,TGI,MALME-3M melanoma,36.3 µM
same,TGI,SNB-19 CNS,66.8 µM
same,TGI,OVCAR-8 ovarian,> 100 µM
same,TGI,NCI-H23 lung,> 100 µM
same,TGI,MCF7 breast,57.5 µM
same,TGI,RPMI-8226 leukemia,43.2 µM
same,TGI,A549 NSCLC,> 100 µM
